From US11739098B2 (BRISTOL-MYERS SQUIBB COMPANY, priority 2017, dated 2023) come the findings set out here.

Molecules are shown by their SMILES. A value given as a limit tells only on which side of the number the result lay.

Assay type in all cases: cell-based
The target of one assay is T1, human TLR7 (Homo sapiens, UniProt Q9NYK1).
T1 construct: host or cells: HEK-Blue cells (HEK293-derived reporter line)
T1 sequence (Q9NYK1 27-1049): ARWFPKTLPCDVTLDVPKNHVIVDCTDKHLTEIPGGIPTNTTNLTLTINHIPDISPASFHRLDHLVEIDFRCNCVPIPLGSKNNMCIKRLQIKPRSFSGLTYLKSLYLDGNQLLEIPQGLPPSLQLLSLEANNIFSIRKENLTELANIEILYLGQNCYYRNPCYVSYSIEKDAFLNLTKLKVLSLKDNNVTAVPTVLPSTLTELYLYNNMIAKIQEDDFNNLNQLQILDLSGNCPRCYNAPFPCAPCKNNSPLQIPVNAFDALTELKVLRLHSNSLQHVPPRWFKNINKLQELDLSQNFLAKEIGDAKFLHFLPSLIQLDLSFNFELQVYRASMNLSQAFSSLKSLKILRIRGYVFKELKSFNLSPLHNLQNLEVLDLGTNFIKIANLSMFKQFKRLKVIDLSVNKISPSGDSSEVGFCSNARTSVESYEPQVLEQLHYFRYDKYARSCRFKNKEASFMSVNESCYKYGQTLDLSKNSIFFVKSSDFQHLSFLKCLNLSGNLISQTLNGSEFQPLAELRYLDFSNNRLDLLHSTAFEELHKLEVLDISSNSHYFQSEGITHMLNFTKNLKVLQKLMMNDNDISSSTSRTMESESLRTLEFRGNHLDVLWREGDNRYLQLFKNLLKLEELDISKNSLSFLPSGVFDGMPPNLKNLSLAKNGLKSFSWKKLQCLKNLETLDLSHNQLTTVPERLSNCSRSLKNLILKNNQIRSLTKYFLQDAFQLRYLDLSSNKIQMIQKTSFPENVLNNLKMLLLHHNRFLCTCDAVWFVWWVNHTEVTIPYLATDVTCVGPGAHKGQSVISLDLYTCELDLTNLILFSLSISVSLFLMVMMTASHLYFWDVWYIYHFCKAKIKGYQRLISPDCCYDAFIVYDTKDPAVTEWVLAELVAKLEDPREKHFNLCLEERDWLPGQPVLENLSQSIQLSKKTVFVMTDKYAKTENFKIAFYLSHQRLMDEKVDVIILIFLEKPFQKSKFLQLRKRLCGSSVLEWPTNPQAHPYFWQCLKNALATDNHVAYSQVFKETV
Briefly: TLR7 inhibition reporter assay (HEK-Blue cells, SEAP reporter, gardiquimod stimulation). Particulars: HEK-Blue cells overexpressing human TLR7, SEAP reporter, gardiquimod 7.5 μM. In short, it runs like this:
(§1)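 Cells seeded per well (15000 TLR7, 20,000 TLR8, 25,000 TLR9); compound added over 0.05 nM–50 μM for 30 min at room temperature; agonist added (TLR7 gardiquimod 7.5 μM, TLR8 R848 15.9 μM, TLR9 ODN2006 5 nM); 22 h at 37 °C; SEAP measured; percent inhibition calculated.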

A further assay has as its target T2, human TLR8 (Homo sapiens, UniProt Q9NR97).
T2 construct: host or cells: HEK-Blue cells (HEK293-derived reporter line)
T2 sequence (Q9NR97 27-1041): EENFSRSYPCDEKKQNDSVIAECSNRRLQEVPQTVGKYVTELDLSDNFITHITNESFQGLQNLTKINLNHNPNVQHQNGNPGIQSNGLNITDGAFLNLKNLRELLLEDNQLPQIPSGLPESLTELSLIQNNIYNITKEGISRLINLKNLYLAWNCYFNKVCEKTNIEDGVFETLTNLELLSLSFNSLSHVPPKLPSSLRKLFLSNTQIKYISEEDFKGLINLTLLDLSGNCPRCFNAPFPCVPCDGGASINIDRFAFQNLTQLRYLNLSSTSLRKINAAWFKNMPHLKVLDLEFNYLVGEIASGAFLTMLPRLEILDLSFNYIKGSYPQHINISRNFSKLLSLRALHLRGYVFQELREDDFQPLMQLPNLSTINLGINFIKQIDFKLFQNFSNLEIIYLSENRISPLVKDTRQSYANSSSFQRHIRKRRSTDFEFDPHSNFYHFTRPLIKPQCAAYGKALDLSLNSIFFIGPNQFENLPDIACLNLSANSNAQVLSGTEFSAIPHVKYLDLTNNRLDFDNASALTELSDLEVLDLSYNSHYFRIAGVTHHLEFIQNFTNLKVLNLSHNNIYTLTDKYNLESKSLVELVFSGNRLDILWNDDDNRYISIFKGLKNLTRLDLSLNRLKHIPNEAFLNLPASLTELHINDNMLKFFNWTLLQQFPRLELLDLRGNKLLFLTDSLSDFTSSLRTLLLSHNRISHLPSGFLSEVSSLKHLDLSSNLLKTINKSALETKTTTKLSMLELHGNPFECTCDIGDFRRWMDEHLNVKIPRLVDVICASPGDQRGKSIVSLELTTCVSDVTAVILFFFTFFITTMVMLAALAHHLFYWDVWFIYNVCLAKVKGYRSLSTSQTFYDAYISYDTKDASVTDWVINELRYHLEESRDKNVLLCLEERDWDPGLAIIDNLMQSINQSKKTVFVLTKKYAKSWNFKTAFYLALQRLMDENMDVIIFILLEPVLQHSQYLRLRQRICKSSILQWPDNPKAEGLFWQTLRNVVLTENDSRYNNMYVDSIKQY
The assay is described as follows: TLR8 inhibition reporter assay (HEK-Blue cells, SEAP reporter, R848 stimulation). Conditions: HEK-Blue cells overexpressing human TLR8, SEAP reporter, R848 15.9 μM. In short, it runs like this: as §1

The target of a further assay is T3, human TLR9 (Homo sapiens, UniProt Q9NR96).
T3 construct: host or cells: HEK-Blue cells (HEK293-derived reporter line)
T3 sequence (Q9NR96 26-1032): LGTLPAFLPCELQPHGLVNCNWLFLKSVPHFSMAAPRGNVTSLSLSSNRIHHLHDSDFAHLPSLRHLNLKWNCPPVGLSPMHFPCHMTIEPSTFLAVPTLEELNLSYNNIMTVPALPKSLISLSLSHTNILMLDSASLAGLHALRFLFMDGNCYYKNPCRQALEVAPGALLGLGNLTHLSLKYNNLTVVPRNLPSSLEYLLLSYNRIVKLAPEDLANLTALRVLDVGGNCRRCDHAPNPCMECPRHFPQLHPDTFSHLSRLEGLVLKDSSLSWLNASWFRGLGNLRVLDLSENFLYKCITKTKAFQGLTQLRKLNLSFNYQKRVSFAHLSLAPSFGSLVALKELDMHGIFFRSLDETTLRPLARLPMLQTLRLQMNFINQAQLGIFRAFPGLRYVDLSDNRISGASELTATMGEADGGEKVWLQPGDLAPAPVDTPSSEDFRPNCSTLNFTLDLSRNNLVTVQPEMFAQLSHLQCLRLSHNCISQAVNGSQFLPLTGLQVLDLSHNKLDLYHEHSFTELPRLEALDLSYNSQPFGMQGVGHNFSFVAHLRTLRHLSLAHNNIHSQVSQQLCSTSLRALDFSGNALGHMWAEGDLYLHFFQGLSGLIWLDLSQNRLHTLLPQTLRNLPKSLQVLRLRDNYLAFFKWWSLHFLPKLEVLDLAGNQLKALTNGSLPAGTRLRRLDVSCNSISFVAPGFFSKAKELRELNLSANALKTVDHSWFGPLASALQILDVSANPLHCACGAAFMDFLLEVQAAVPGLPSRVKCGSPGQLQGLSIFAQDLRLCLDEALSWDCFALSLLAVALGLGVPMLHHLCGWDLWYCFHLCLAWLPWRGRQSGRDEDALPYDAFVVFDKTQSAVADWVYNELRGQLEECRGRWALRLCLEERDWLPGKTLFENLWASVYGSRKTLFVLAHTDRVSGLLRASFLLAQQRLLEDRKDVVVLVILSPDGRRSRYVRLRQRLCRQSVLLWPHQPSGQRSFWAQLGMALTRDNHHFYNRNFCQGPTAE
The assay is described as follows: TLR9 inhibition reporter assay (HEK-Blue cells, SEAP reporter, ODN2006 stimulation). Particulars: HEK-Blue cells overexpressing human TLR9, SEAP reporter, ODN2006 5 nM. The method in brief: as §1

As for `CC(C)c1c(-c2cccn3ncnc23)[nH]c2ccc(C3CCN(CC(C)(C)O)CC3)cc12` [Example 760, 1-(4-(2-([1,2,4]triazolo[1,5-a]pyridin-8-yl)-3-isopropyl-1H-indol-5-yl)piperidin-1-yl)-2-methylpropan-2-ol], the half-maximal inhibitory concentration (IC50) (as a rule, the midpoint of a concentration-inhibition curve) is 100 to 1000 nM on human TLR7, under 100 nM at human TLR8 and 1000 to 50000 nM against human TLR9.
Taken in the same sequence, the figures for `Cc1cc(-c2[nH]c3ccc(C4CCN(CC(C)(C)O)CC4)cc3c2C(C)C)c2ccccc2n1` [Example 752, 1-(4-(3-isopropyl-2-(2-methylquinolin-4-yl)-1H-indol-5-yl)piperidin-1-yl)-2-methylpropan-2-ol] were under 100 nM, under 100 nM and 1000 to 50000 nM.
Taken in the same sequence, the figures for `Cc1cc(-c2[nH]c3ccc(C4CCN(CC#N)CC4)cc3c2C(C)C)cc2cnnn12` [Example 964, 2-(4-(3-isopropyl-2-(7-methyl-[1,2,3]triazolo[1,5-a]pyridin-5-yl)-1H-indol-5-yl)piperidin-1-yl)acetonitrile] were under 100 nM, under 100 nM and 100 to 1000 nM.
With `Cc1cn2cc(-c3[nH]c4ccc(C5CCNCC5)cc4c3C(C)C)ccc2n1` [Example 115, 6-(3-isopropyl-5-(piperidin-4-yl)-1H-indol-2-yl)-2-methylimidazo[1,2-a]pyridine], the IC50 against human TLR7 is under 100 nM; against human TLR8, 100 to 1000 nM; against human TLR9, 100 to 1000 nM.
For the compound `CC(C)c1c(-c2cnc3ncccn23)[nH]c2ccc(C3CCNCC3)cc12` [Example 64, 3-(3-isopropyl-5-(piperidin-4-yl)-1H-indol-2-yl)imidazo[1,2-a]pyrimidine], the 50% inhibitory concentration (IC50) is under 100 nM against human TLR7, under 100 nM against human TLR8 and 100 to 1000 nM at human TLR9.
In the case of `Cc1nc2c(-c3[nH]c4ccc(C5CCN(CC(=O)N(C)C)CC5)cc4c3C(C)C)ccc(C)n2n1` [Example 384, 2-(4-(2-(2,5-dimethyl-[1,2,4]triazolo[1,5-a]pyridin-8-yl)-3-isopropyl-1H-indol-5-yl)piperidin-1-yl)-N,N-dimethylacetamide], the values for the concentration for half-maximal inhibition (IC50) on human TLR7, at human TLR8 and on human TLR9 were 1000 to 50000 nM, 100 to 1000 nM and 1000 to 50000 nM, respectively.
Consider `FC(F)Cc1c(-c2ccc3nccn3c2)[nH]c2ccc(C3CCN(Cc4c[nH]cn4)CC3)cc12` [Example 941, 6-(5-(1-((1H-imidazol-4-yl)methyl)piperidin-4-yl)-3-(2,2-difluoroethyl)-1H-indol-2-yl)imidazo[1,2-a]pyridine], for which the IC50 against human TLR7, on human TLR8 and against human TLR9 was 100 to 1000 nM each time.
Regarding `CCc1c(-c2cccc3c2cnn3C)[nH]c2ccc(C3CCNCC3)cc12` [Example 100, 4-(3-ethyl-5-(piperidin-4-yl)-1H-indol-2-yl)-1-methyl-1H-indazole], the values for the concentration for half-maximal inhibition (IC50) on human TLR7, against human TLR8 and against human TLR9 were 1000 to 50000 nM, over 50000 nM and 1000 to 50000 nM, respectively.
Turning to `CC(C)c1c(-c2ccc3nccn3c2)[nH]c2ccc(C3CCN(C(=O)[C@H]4CCCNC4)CC3)cc12` [Example 640, (S)-(4-(2-(imidazo[1,2-a]pyridin-6-yl)-3-isopropyl-1H-indol-5-yl)piperidin-1-yl)(piperidin-3-yl)methanone], the figures for the concentration for half-maximal inhibition (IC50) against human TLR7, against human TLR8 and on human TLR9 were under 100 nM, 100 to 1000 nM and 1000 to 50000 nM, respectively.
Turning to `Cc1cc2cc(-c3[nH]c4ccc(C5CCN(C6COC6)CC5)cc4c3C(C)C)cc(CC(C)C)n2n1` [Example 716, 7-isobutyl-5-(3-isopropyl-5-(1-(oxetan-3-yl)piperidin-4-yl)-1H-indol-2-yl)-2-methylpyrazolo[1,5-a]pyridine], the IC50 on human TLR7 is over 3130 nM; against human TLR8, over 3130 nM; against human TLR9, 1000 to 50000 nM.
As to `Cc1nc2cc(-c3[nH]c4ccc(C5CCN(C(=O)CC(C)(C)O)CC5)cc4c3C(C)C)ccn2n1` [Example 601, 3-hydroxy-1-(4-(3-isopropyl-2-(2-methyl-[1,2,4]triazolo[1,5-a]pyridin-7-yl)-1H-indol-5-yl)piperidin-1-yl)-3-methylbutan-1-one], the IC50 is under 100 nM against human TLR7, over 3130 nM against human TLR8 and 1000 to 50000 nM at human TLR9.
The corresponding values for `Cc1cc(-c2[nH]c3ccc(C4CCN(CC(=O)N(C)C)CC4)cc3c2C(C)C)nc2scnc12` [Example 407, 2-(4-(3-isopropyl-2-(7-methylthiazolo[5,4-b]pyridin-5-yl)-1H-indol-5-yl)piperidin-1-yl)-N,N-dimethylacetamide] are under 100 nM, under 100 nM and 1000 to 50000 nM.
The corresponding values for `Cc1cn2cc(-c3[nH]c4ccc(C5CCN(C6COC6)CC5)cc4c3C(C)C)cc(C)c2n1` [Example 717, 6-(3-isopropyl-5-(1-(oxetan-3-yl)piperidin-4-yl)-1H-indol-2-yl)-2,8-dimethylimidazo[1,2-a]pyridine] are under 100 nM, 100 to 1000 nM and 100 to 1000 nM.
